# Experimental data: patent US20030176390A1, “Methods of treating insulin resistance syndrome and diabetes” (priority 2001, published 2003)
# pEC50: −log10 of the molar value.
# What was measured:
# A1 and A2 receptors = conditions: selectivity; cited from earlier work
# [1] = Insulin tolerance test (3 U/kg s.c.) in insulin resistant Zucker Fatty rats after 3 weeks pretreatment; type: in vivo; set-up: unit not given here
# Experimental: Measurement of Insulin Sensitivity in Conscious Rats.
# Insulin resistant Zucker Fatty rats or Zucker Diabetic Fatty (ZDF) rats were treated for up to 3 weeks with the test compound orally once daily. Plasma parameters were obtained by retroorbital bleeding during inhalation anaesthesia on respective study days. […] In the case of improvement of insulin sensitivity by the test compound the blood glucose reduction was much more pronounced and prolonged compared to that of the control group.
# rat adipocytes = assay: In vitro lipolysis assay (antilipolytic activity in rat adipocytes); type: cell-based; conditions: Rattus norvegicus, Adipocyte, 1 h; norepinephrine-stimulated lipolysis, glycerol assayed, 60 min; read-out: Lipo ec50
# [2] = Plasma free fatty acids in anaesthetized starved male Wistar rats; type: in vivo; set-up: unit not given here
# Experimental: Measurement of Plasma Lipdis (Free Fatty Acids, Triglycerides, Cholesterol) in Anaesthetized Rats.
# Plasma lipid levels were assayed in anaesthetized rats. Briefly, rats were anaesthetized with an intraperitoneal injection of pentobarbital sodium (60 mg/kg), tracheotomized, and one jugular vein per rat was cannulated for intravenous administration (bolus injection or infusion). Anesthesia was mantained for up to 7 hours by subcutaneous infusion of pentobarbital sodium (adjusted to the anesthetic depth of the individual animal; about 24 mg/kg/h). Body temperature was monitored with a rectal probe thermometer, and temperature was maintained at 37° C. by means of a heated surgical plate. The rats were allowed to stabilize their blood levels after surgery for up to 2 hours, after which the test compound was injected intraperitoneally. Blood samples for glucose analysis (10 μl) were obtained from the tip of the tail every 15 minutes. For analysis of plasma lipids blood samples (0.3 ml) were obtained from the jugular vein either every 10 to 15 minutes for up to 2 hours, or every hour for up to 5 hours after compound administration. Standard enzymatic procedures were used to determine blood glucose (Bergmeyer, 1974).
# A2 receptor = conditions: relative to NECA; cited from earlier work
structure (smiles),measurement,setting,value
"OC[C@H]1O[C@@H](n2cnc3c(NC4CCCC4)ncnc32)[C@H](O)[C@@H]1O [CPA, Cyclopentyladenosine]",A2/A1 ratio,A1 and A2 receptors,780
"COC[C@H]1C[C@@H](n2cnc3c(N[C@H]4CCN(c5ccc(C(F)(F)F)cn5)C4)ncnc32)[C@H](O)[C@@H]1O [Example 3, (1R,2S,3R,5R)-5-methoxymethyl-3-[6-[1-(5-trifluoromethylpyridin2-yl)pyrrolidin-3(S)-ylamino]-purin-9-yl]cyclopentane-1,2-diol]",melting point,,166 to 168 °C
same,"Insulin tolerance test, blood glucose, mean","[1]; 1 mg/kg p.o. for 3 weeks (first group), 0 minutes after insulin",4.60
same,"Insulin tolerance test, blood glucose, mean","[1]; 1 mg/kg p.o. for 3 weeks (first group), 60 minutes after insulin",1.96
same,"Insulin tolerance test, blood glucose, mean","[1]; 1 mg/kg p.o. for 3 weeks (first group), 120 minutes after insulin",1.59
same,"Insulin tolerance test, blood glucose, mean","[1]; 1 mg/kg p.o. for 3 weeks (first group), 180 minutes after insulin",1.72
same,"Insulin tolerance test, blood glucose, mean","[1]; 1 mg/kg p.o. for 3 weeks (first group), 240 minutes after insulin",3.02
same,"Insulin tolerance test, blood glucose, mean","[1]; 1 mg/kg p.o. for 3 weeks (first group), 300 minutes after insulin",5.13
same,"Insulin tolerance test, blood glucose, mean","[1]; 1 mg/kg p.o. for 3 weeks (first group), 360 minutes after insulin",4.98
same,"Insulin tolerance test, blood glucose, mean","[1]; 1 mg/kg p.o. for 3 weeks (first group), 420 minutes after insulin",4.04
same,"Insulin tolerance test, blood glucose, mean","[1]; second group, (1 mg/kg p.o.), 3 weeks, 0 minutes after insulin",5.17
same,"Insulin tolerance test, blood glucose, mean","[1]; second group, (1 mg/kg p.o.), 3 weeks, 60 minutes after insulin",1.99
same,"Insulin tolerance test, blood glucose, mean","[1]; second group, (1 mg/kg p.o.), 3 weeks, 120 minutes after insulin",1.57
same,"Insulin tolerance test, blood glucose, mean","[1]; second group, (1 mg/kg p.o.), 3 weeks, 180 minutes after insulin",1.44
same,"Insulin tolerance test, blood glucose, mean","[1]; second group, (1 mg/kg p.o.), 3 weeks, 240 minutes after insulin",2.54
same,"Insulin tolerance test, blood glucose, mean","[1]; second group, (1 mg/kg p.o.), 3 weeks, 300 minutes after insulin",4.35
same,"Insulin tolerance test, blood glucose, mean","[1]; second group, (1 mg/kg p.o.), 3 weeks, 360 minutes after insulin",5.63
same,"Insulin tolerance test, blood glucose, mean","[1]; second group, (1 mg/kg p.o.), 3 weeks, 420 minutes after insulin",6.09
same,pEC50,rat adipocytes,8.25
same,"plasma free fatty acids, mean","[2]; 10 mg/kg i.p., 10 minutes",0.42
same,"plasma free fatty acids, mean","[2]; 10 mg/kg i.p., 20 minutes",0.26
same,"plasma free fatty acids, mean","[2]; 10 mg/kg i.p., 30 minutes",0.19
same,"plasma free fatty acids, mean","[2]; 10 mg/kg i.p., 40 minutes",0.19
same,"plasma free fatty acids, mean","[2]; 10 mg/kg i.p., 60 minutes",0.13
same,"plasma free fatty acids, mean","[2]; 10 mg/kg i.p., −60 minutes",0.61
same,"plasma free fatty acids, mean","[2]; 30 mg/kg i.p., 10 minutes",0.24
same,"plasma free fatty acids, mean","[2]; 30 mg/kg i.p., 20 minutes",0.14
same,"plasma free fatty acids, mean","[2]; 30 mg/kg i.p., 30 minutes",0.13
same,"plasma free fatty acids, mean","[2]; 30 mg/kg i.p., 40 minutes",0.10
same,"plasma free fatty acids, mean","[2]; 30 mg/kg i.p., 60 minutes",0.09
same,"plasma free fatty acids, mean","[2]; 30 mg/kg i.p., −60 minutes",0.52
Nc1nc(Nc2ccccc2)nc2c1ncn2[C@@H]1O[C@H](CO)[C@@H](O)[C@H]1O [CV-1808],fold less potent than NECA in its affinity for the A2 receptor,A2 receptor,10 fold
same,A2/A1 ratio,A1 and A2 receptors,0.19
